In patent US12337004B2, “Coumarin-modified androgens for the treatment of prostate cancer” (Health Research, Inc., priority 2019, dated 2025):

What was measured:
KLK2 [1] = assay: qRT-PCR of AR-regulated gene KLK2; type: cell-based; details: 24 hours; VCaP, LAPC-4, LNCaP, CWR-R1 and 22rv1 cells
ARE-luciferase = ARE-luciferase transactivation; type: cell-based
KLK2 [2] = assay: Western blot of AR-regulated protein expression; type: cell-based; details: CaP cell lines
AR-GFP [3] = target: T1, AR-GFP (Homo sapiens, UniProt P10275); assay: ImageStream nuclear co-localization with AR-GFP; type: cell-based; details: VCaP-AR-GFP and PC-3-AR-GFP cells
T1 construct: expressed in transfected cells; host or cells: VCaP, PC-3 (also LAPC-4, CWR-R1, 22Rv1, DU145)
T1 sequence (P10275 1-920): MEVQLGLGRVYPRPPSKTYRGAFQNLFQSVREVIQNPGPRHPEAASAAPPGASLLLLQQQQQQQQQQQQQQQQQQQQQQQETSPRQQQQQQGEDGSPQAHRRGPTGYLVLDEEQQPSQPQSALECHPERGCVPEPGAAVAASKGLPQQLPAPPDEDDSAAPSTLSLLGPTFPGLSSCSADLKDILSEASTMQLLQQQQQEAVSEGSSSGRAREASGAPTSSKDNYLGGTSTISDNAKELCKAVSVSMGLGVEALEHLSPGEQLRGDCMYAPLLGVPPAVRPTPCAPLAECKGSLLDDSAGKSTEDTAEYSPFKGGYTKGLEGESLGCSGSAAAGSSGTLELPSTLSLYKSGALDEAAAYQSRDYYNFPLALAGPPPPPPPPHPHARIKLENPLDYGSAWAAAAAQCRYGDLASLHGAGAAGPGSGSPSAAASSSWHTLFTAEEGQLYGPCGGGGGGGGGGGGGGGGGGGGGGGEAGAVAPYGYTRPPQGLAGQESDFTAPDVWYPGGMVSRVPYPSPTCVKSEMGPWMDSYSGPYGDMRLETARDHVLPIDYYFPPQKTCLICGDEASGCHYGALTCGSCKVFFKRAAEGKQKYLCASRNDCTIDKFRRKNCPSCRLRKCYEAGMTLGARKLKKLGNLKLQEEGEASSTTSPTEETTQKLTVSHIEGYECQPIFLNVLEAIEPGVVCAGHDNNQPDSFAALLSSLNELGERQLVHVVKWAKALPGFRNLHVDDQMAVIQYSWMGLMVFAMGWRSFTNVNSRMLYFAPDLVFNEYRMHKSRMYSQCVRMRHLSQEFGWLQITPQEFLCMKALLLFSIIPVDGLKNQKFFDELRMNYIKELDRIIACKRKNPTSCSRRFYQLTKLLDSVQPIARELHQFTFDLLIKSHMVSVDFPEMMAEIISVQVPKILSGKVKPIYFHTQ
From the text: Androgen-sensitive AR-positive LAPC-4 and VCaP, castration-recurrent and AR-positive CWR-R1 and CWR-22rv1 (22rv1), and AR-negative PC-3 and DU145 cells were transfected with either an empty pCMV expression plasmid (control) or a pCMV plasmid that encoded a wild-type AR tagged with a C-terminal green fluorescent protein (GFP; AR-GFP). AR-positive CaP cell lines were transfected with AR-GFP to assess if DHT-17C or DHT-3C co-localized with AR and translocated to the nucleus.
AR positive CaP cell lines were treated for 16 hours with androgen-free, serum-free complete media (SFM) alone, or SFM that contained 20 nM or 50 nM fluorescent-androgens or C alone. The time points were chosen to measure differences in uptake of the fluorescent-androgens and nuclear or cytosolic localization of the fluorescent-androgens and/or AR-GFP.
Serum-free complete media (SFM)^2 was used to androgen deprive cells.

LAPC-4 cells = assay: MTT cell growth, LAPC-4; type: cell-based; details: six days; data not shown
22Rv1 cells = assay: MTT cell growth, 22Rv1; type: cell-based; details: six days; data not shown
AR-GFP [4] = target: T1, AR-GFP; type: cell-based; details: DHT-17C versus enzalutamide
From the text: (§4) ImageStream was used to perform competition studies between DHT-17C and enzalutamide for AR-GFP or AR-V2 to establish that DHT-17C targets the AR-LBD.

LNCaP cells = assay: MTT cell growth, LNCaP; type: cell-based; details: six days; data not shown
[5] = system: CV-1 monkey kidney cell line; assay: MTT cell growth, CV-1; type: cell-based; details: non-CaP cell line
CWR-R1 cells = assay: MTT cell growth, CWR-R1; type: cell-based, human; details: six days
Description: (§1) Identification of a 3α-oxidoreductase inhibitors: Various non-steroidal compounds were tested for anti-neoplastic activity by screening against PC-3 CaP cells. Coumarin-labeled androgens were developed to track changes in androgen metabolism pathways in response to castration or androgen metabolism inhibition using in vitro and in vivo CaP cell models.
(§2) VCaP, CWR-R1 and PC-3 cells were treated for six days with complete culture media (CM), serum-free culture media (SFM), bicalutamide (Bic) at 10 μM, the coumarin C at 20 μM, DHT at 10 nM, DHT-17C at 20 nM and DHT-3C at 20 nM (FIG. 20). […] MTT analysis was performed to compare cell growth impairment of VCaP cells treated with DHT-17C versus enzalutamide. Cells were treated with DHT-17C at 1 nM, 12 nM, 20 nM, 50 nM or 100 nM concentrations, or enzalutamide at 1 μM, 12 μM, 20 μM, 50 μM or 100 μM concentrations. […] MTT performed using ezanlutamide (20 uM) or DHT-17C (50 nM) treated mutant AR and AR-V7 positive CWR-R1 cells supported VCaP MTT data (FIG. 22).

[6] = system: 293 human kidney cell line; assay: MTT cell growth, 293; type: cell-based; details: non-CaP cell line
AR-V2 = target: T2, AR-V2 (Homo sapiens, UniProt P10275); type: cell-based; details: DHT-17C versus enzalutamide
T2 construct: stably expressed AR170 LBD only with splice variant V2 (AR-V2-GFP); expressed in transfected cells; host or cells: VCaP, PC-3
T2 sequence (P10275 1-388 isoform P10275-2): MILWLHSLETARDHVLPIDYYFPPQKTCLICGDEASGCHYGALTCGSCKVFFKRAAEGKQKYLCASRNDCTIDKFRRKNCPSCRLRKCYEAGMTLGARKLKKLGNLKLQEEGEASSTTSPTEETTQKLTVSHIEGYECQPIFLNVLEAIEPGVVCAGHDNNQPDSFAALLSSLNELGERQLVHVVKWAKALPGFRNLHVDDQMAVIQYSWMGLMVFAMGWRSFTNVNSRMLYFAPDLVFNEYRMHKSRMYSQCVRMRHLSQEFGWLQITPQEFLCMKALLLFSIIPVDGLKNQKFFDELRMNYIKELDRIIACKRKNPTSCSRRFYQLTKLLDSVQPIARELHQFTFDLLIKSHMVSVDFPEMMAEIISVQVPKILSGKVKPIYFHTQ
From the text: as §4

PC-3 cells = assay: MTT cell growth, AR-negative PC-3; type: cell-based; details: six days, 20 nM
Description: as §1, §2

DU145 cells = assay: MTT cell growth, DU145; type: cell-based; details: AR-negative
AR-V2-GFP = target: T3, AR-V2-GFP (Homo sapiens, UniProt P10275); assay: ImageStream co-localization with AR-V2-GFP; type: cell-based; details: VCaP and PC-3 cells that stably expressed AR-V2-GFP
T3 construct: stably expressed AR170 LBD only with splice variant V2 (AR-V2-GFP); expressed in transfected cells; host or cells: VCaP, PC-3
T3 sequence (P10275 1-388 isoform P10275-2): T2 sequence (P10275 1-388 isoform P10275-2)
Description: ImageStream studies were repeated using VCaP and PC-3 cells that stably expressed AR-V2 (splice-variant that lacked the N-terminus) with C-terminal GFP (AR-V2-GFP). […] ImageStream data was confirmed using immunoprecipation (IP) studies performed with a DHT-targeted antibody.
Serum-free complete media (SFM)^2 was used to androgen deprive cells. PC-3 cells that contained empty plasmid were treated with SFM alone, SFM with C or SFM with DHT-3C.

VCaP cells = assay: MTT cell growth, VCaP; type: cell-based
Description: as §1, §2

RDH16-YFP [7] = target: T4, RDH16-YFP (Homo sapiens, UniProt O75452); assay: ImageStream competition for RDH16-YFP; type: cell-based; details: PC-3 cells that stably expressed RDH16-YFP
T4 construct: expressed in transfected cells; host or cells: PC-3
T4 sequence (O75452 1-317): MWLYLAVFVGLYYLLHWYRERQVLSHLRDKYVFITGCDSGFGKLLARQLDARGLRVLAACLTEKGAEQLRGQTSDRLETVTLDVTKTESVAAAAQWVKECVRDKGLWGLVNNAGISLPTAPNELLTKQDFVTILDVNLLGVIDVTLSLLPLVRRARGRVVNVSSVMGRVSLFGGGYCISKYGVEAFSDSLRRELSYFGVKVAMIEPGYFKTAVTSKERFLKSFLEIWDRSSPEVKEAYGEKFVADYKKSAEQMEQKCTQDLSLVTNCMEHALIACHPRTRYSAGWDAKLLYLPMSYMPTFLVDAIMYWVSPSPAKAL
Description: (§3) ImageStream (ImageStream^X-MKII Flow Cytometer [Amnis, Seattle, WA]) is a hybrid technique that combines the statistical power of flow cytometry and the imaging capability of fluorescence microscopy that was adapted to study simultaneously DIOL-17C compartmental localization and activity. ImageStream data were normalized against single-stained controls and analyzed using Image Data Exploration and Analysis Software (IDEAS; Amnis). The similarity score was measured by comparing two images of the same cell pixel by pixel. If the similarity score was >0, the two objects (RDH16-YFP and DIOL-17C) were co-localized.

RDH16-YFP [8] = target: T4, RDH16-YFP; assay: ImageStream co-localization with RDH16-YFP; type: cell-based; details: PC-3-RDH16-YFP cells
Description: as §3

3α-oxidoreductase = assay: LC-MS/MS of CaP cells treated with DIOL-17C; type: in vitro ADME

In the case of `C[C@]12CCC(=O)C[C@@H]1CC[C@@H]1[C@@H]2CC[C@]2(C)[C@@H](O)CC[C@@H]12` [DHT, 5α-dihydrotestosterone, reference compound], the KLK2 transcript induction (KLK2 [1]) is reported as “produced similar inductions of expression”, the ARE-luciferase signal (ARE-luciferase) is reported as “produced ARE-luciferase signal” and the “AR-regulated protein expression levels” value (KLK2 [2]) is reported as “produced similar AR-regulated protein expression levels”.
For `C[C@]12CCC3C(CC[C@H]4CC(=O)CC[C@]34C)C1CC[C@@H]2OCC(=O)NCCc1cc(=O)oc2c3c4c(cc12)CCCN4CCC3` (stereo partly drawn) [DHT-17C, N-2′-(2,3,4,5-Tetrahydro-1H,4H-10-keto-11-oxa-3α-azabenzo[de]anthracenyl)ethyl (3-keto-5α-androstan-17β-yl)glycolamide], the “nuclear co-localization with AR-GFP and DRAQ5” value (AR-GFP [3]) was “co-localized with AR-GFP”, the “LAPC-4 cell growth (MTT)” value (LAPC-4 cells) was “produced similar responses” and the “22Rv1 cell growth (MTT)” value (22Rv1 cells) was “produced similar responses”. For the same molecule, the “competition for the AR-LBD of wild-type AR” value (AR-GFP [4]) was “compete for the AR-LBD of wild-type AR and AR-V2”, the “LNCaP cell growth (MTT)” value (LNCaP cells) was “produced similar responses” and the “CV-1 cell growth (MTT)” value [5] was “did not impair cell growth”. The “CWR-R1 cell growth (MTT)” value (CWR-R1 cells; DHT-17C at 20 nM, DHT-3C at 20 nM) was “impaired VCaP and CWR-R1 cell growth”, the “CWR-R1 cell growth, combination with bicalutamide” value (CWR-R1 cells; bicalutamide 10 μM, p-values<0.05) was “enhanced the effect of bicalutamide” and the “293 cell growth (MTT)” value [6] was “did not impair cell growth”. The KLK2 transcript induction (KLK2 [1]) was “did not induce KLK2 transcript formation”, the “competition for the AR-LBD of AR-V2” value (AR-V2) was “compete for the AR-LBD of wild-type AR and AR-V2” and the “PC-3 cell growth (MTT)” value (PC-3 cells) was “did not impair cell growth”. For the same molecule, the “DU145 cell growth (MTT)” value (DU145 cells) was “did not impair cell growth”, the “co-localization with AR-V2-GFP” value (AR-V2-GFP) was “co-localized with DRAQ5 and AR-V2-GFP” and the “dose lower than enzalutamide for VCaP growth inhibition” value (VCaP cells; DHT-17C 20 nM vs enzalutamide 20 μM, AR-V7 positive VCaP) was 1000 ×. The “VCaP cell growth impairment versus enzalutamide” value (VCaP cells; DHT-17C at 1, 12, 20, 50 or 100 nM) was “impaired VCaP cell growth to similar extents as enzalutamide”, the “VCaP cell growth (MTT)” value (VCaP cells; six days, DHT-17C at 20 nM, DHT-3C at 20 nM) was “impaired VCaP and CWR-R1 cell growth” and the “VCaP cell growth, combination with bicalutamide” value (VCaP cells; six days, bicalutamide 10 μM, p-values<0.05) was “enhanced the effect of bicalutamide”.
In the case of `C[C@]12CC[C@@H](O)C[C@@H]1CC[C@@H]1[C@@H]2CC[C@]2(C)[C@@H](O)CC[C@@H]12` [DIOL, 5α-androstane-3α,17β-diol, reference compound], the “competition for RDH16-YFP” value (RDH16-YFP [7]) is reported as “compete for RDH16-YFP” and the ARE-luciferase signal (ARE-luciferase) is reported as “produced ARE-luciferase signal”.
For `C[C@]12CCC3C(CC[C@H]4C[C@H](O)CC[C@]34C)C1CC[C@@H]2OCC(=O)NCCc1cc(=O)oc2c3c4c(cc12)CCCN4CCC3` (stereo partly drawn) [DIOL-17C, N-2′-(2,3,4,5-Tetrahydro-1H,4H-10-keto-11-oxa-3α-azabenzo[de]anthracenyl)ethyl (3α-hydroxy-5α-androstan-17β-yl)glycolamide], the “competition for RDH16-YFP” value (RDH16-YFP [7]) was “compete for RDH16-YFP”, the “co-localization with RDH16-YFP and DRAQ5 in the nucleus” value (RDH16-YFP [8]) was “co-localized with RDH16-YFP” and the “CaP cell growth (MTT)” value (VCaP cells; 20 nM, 6 days in SFM, FIG. 14 VCaP) was “impaired CaP cell growth”. The “3α-oxidoreductase metabolism to DHT-17C” value (3α-oxidoreductase) was “did not impair 3α-oxidoreductase metabolism of DIOL-17C to DHT-17C” and the “free DIOL and orphan coumarin produced by cells” value (3α-oxidoreductase) was “No orphan fluorophores were detected”.
